Measurements taken from patent publication US12661410B2, “Compounds for targeted degradation of RET” (C4 Therapeutics, Inc., priority 2020, dated 2026).
Positions count from the first letter of the chain named. Read-outs that look alike come from different tables or passages of the source.

Key:
RET(KD: 658-1114 G810R) = biological target: T1, RET(KD: 658-1114 G810R) (Homo sapiens, UniProt P07949, G810R); assay: HiBiT-Degradation, RET G810R degradation assay (Nano-Glo HiBiT Lytic), 293T.165 cells; type: cell-based; settings: for Emax / DC50: 6.0 hours
T1 construct: 658-1114; expressed in transfected cells; host or cells: 293T.165 (293T cells, generated in-house)
T1 sequence (P07949 658-1114 G810R): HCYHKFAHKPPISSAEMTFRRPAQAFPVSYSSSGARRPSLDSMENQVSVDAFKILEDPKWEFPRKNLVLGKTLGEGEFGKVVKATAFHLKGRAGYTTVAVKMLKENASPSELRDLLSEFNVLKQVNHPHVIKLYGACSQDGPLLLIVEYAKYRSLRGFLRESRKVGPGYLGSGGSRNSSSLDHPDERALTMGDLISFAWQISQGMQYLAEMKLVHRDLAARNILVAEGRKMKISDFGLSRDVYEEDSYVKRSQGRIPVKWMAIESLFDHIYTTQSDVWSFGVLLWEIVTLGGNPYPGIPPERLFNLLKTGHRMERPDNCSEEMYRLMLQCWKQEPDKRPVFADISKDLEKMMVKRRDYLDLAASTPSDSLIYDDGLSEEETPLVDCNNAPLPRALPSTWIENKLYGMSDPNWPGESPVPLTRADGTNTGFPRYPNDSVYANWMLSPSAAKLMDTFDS
Summary of the method: (§1)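 HEK293T lines stably expressing HiBiT-tagged RET kinase domain (WT: 293T.144; G810R: 293T.165) were treated with degraders for 6 h in duplicate, 11-point half-log series from 10 μM top dose. Lysis with Nano-Glo HiBiT Lytic reagent, luminescence read; DC50 and Emax (% remaining protein) derived from dose-response curves.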

RET (658-1114) = biological target: T2, RET (658-1114) (Homo sapiens, UniProt P07949); assay: HiBiT-Degradation, RET wild-type degradation assay (Nano-Glo HiBiT Lytic), 293T.144 cells; type: cell-based; settings: for Emax / DC50: 6.0 hours
T2 construct: 658-1114; expressed in transfected cells; host or cells: 293T.144 (293T cells, generated in-house)
T2 sequence (P07949 658-1114): T1 sequence (P07949 658-1114 G810R) with R153G
Summary of the method: as §1

[1] = % remaining protein, read-out: 293T.165 RET(KD: 658-1114 G810R) 6.0 hours (Emax)
[2] = half-maximal degradation concentration, read-out: 293T.165 RET(KD: 658-1114 G810R) 6.0 hours (DC50)
[3] = % remaining protein, read-out: 293T.144 RET (658-1114) 6.0 hours (Emax)
[4] = half-maximal degradation concentration, read-out: 293T.144 RET (658-1114) 6.0 hours (DC50)

| Emax (RET(KD: 658-1114 G810R); [1]) [%] | DC50 (RET(KD: 658-1114 G810R); [2]) [nM] | 293T.165 RET(KD: 658-1114 G810R) 6.0 hours (Emax) (RET(KD: 658-1114 G810R); HiBiT-Degradation) | 293T.165 RET(KD: 658-1114 G810R) 6.0 hours (IP) [nM] (RET(KD: 658-1114 G810R); HiBiT-Degradation) | DC50 (RET(KD: 658-1114 G810R); HiBiT-Degradation, read-out: 293T.165 RET(KD: 658-1114 G810R) 6.0 hours (DC50)) [nM] | 293T.144 RET (658-1114) 6.0 hours (IP) [nM] (RET (658-1114); HiBiT-Degradation) | DC50 (RET (658-1114); HiBiT-Degradation, read-out: 293T.144 RET (658-1114) 6.0 hours (DC50)) [nM] | Emax (RET (658-1114); HiBiT-Degradation, read-out: 293T.144 RET (658-1114) 6.0 hours (Emax)) [%] | HiBiT-Degradation 293T.165 RET(KD: 658-1114 G810R) 6.0 hours (IP) [nM] (RET(KD: 658-1114 G810R); RET G810R) | DC50 (RET(KD: 658-1114 G810R); RET G810R, read-out: HiBiT-Degradation 293T.165 RET(KD: 658-1114 G810R) 6.0 hours (DC50)) [nM] | Emax (RET(KD: 658-1114 G810R); RET G810R, read-out: HiBiT-Degradation 293T.165 RET(KD: 658-1114 G810R) 6.0 hours (Emax)) [%] | HiBiT-Degradation 293T.144 RET (658-1114) 6.0 hours (IP) [nM] (RET (658-1114); RET wild-type) | DC50 (RET (658-1114); RET wild-type, read-out: HiBiT-Degradation 293T.144 RET (658-1114) 6.0 hours (DC50)) [nM] | Emax (RET (658-1114); RET wild-type, read-out: HiBiT-Degradation 293T.144 RET (658-1114) 6.0 hours (Emax)) [%] | SMILES | 293T.165 RET(KD: 658-1114 G810R) 6.0 hours (IP) [nM] (RET(KD: 658-1114 G810R)) | 293T.144 RET (658-1114) 6.0 hours (IP) [nM] (RET (658-1114)) | Emax (RET (658-1114); [3]) [%] | DC50 (RET (658-1114); [4]) [nM] |
| --- | --- | --- | --- | --- | --- | --- | --- | --- | --- | --- | --- | --- | --- | --- | --- | --- | --- | --- |
| < 30 | < 50 |  |  |  |  |  |  |  |  |  |  |  |  | CCC1(C(=O)Nc2ccccc2)CCN(c2ccc(-c3nc(-c4cnn(C5CCN(C(=O)CC6(O)CCN(c7ccc(NC8CCC(=O)NC8=O)cc7F)CC6)CC5)c4)cn4ncc(C#N)c34)cn2)CC1 (stereo not shown) [Compound 99, 1-[5-[3-cyano-6-[1-[1-[2-[1-[4-[(2,6-dioxo-3-piperidyl)amino]-2-fluoro-phenyl]-4-hydroxy-4-piperidyl]acetyl]-4-piperidyl]pyrazol-4-yl]pyrazolo[1,5-a]pyrazin-4-yl]-2-pyridyl]-4-ethyl-N-phenyl-piperidine-4-carboxamide] | ++++ (<50 nM = ++++) | ++++ (<50 nM = ++++) | < 30 | < 50 |
| < 50 | < 50 | +++ (<50% = +++) | ++++ (< 50 nM = ++++) | < 50 | ++++ (< 50 nM = ++++) | < 50 | < 30 |  |  |  |  |  |  | CCC1(NC(=O)C(C)C)CCN(c2ccc(-c3cc(-c4cnn(C5CCN(C(=O)CN6CCC(c7ccc(NC8CCC(=O)NC8=O)cc7F)CC6)CC5)c4)cn4ncc(C#N)c34)cn2)CC1 (stereo not shown) [Compound 55, N-[1-[5-[3-cyano-6-[1-[1-[2-[4-[4-[(2,6-dioxo-3-piperidyl)amino]-2-fluoro-phenyl]-1-piperidyl]acetyl]-4-piperidyl]pyrazol-4-yl]pyrazolo[1,5-a]pyridin-4-yl]-2-pyridyl]-4-ethyl-4-piperidyl]-2-methyl-propanamide] |  |  |  |  |
| < 50 | < 100 |  |  |  |  |  |  | ++++ (< 50 nM = ++++) | < 100 | < 50 | ++++ (< 50 nM = ++++) | < 50 | < 30 | N#Cc1cnn2cc(-c3cnn(C4CCN(C(=O)NC5CCN(c6ccc(NC7CCC(=O)NC7=O)cc6F)CC5)CC4)c3)cc(-c3ccc(N4CCN(Cc5ccccn5)CC4)nc3)c12 (stereo not shown) [Compound 77, 4-[4-[3-cyano-4-[6-[4-(2-pyridylmethyl)piperazin-1-yl]-3-pyridyl]pyrazolo[1,5-a]pyridin-6-yl]pyrazol-1-yl]-N-[1-[4-[(2,6-dioxo-3-piperidyl)amino]-2-fluoro-phenyl]-4-piperidyl]piperidine-1-carboxamide] |  |  |  |  |

| SMILES | Emax (RET(KD: 658-1114 G810R); [1]) [%] | DC50 (RET(KD: 658-1114 G810R); [2]) [nM] | 293T.165 RET(KD: 658-1114 G810R) 6.0 hours (Emax) (RET(KD: 658-1114 G810R); HiBiT-Degradation) | 293T.165 RET(KD: 658-1114 G810R) 6.0 hours (IP) [nM] (RET(KD: 658-1114 G810R); HiBiT-Degradation) | DC50 (RET(KD: 658-1114 G810R); HiBiT-Degradation, read-out: 293T.165 RET(KD: 658-1114 G810R) 6.0 hours (DC50)) [nM] | 293T.144 RET (658-1114) 6.0 hours (IP) [nM] (RET (658-1114); HiBiT-Degradation) | DC50 (RET (658-1114); HiBiT-Degradation, read-out: 293T.144 RET (658-1114) 6.0 hours (DC50)) [nM] | Emax (RET (658-1114); HiBiT-Degradation, read-out: 293T.144 RET (658-1114) 6.0 hours (Emax)) [%] | HiBiT-Degradation 293T.165 RET(KD: 658-1114 G810R) 6.0 hours (IP) [nM] (RET(KD: 658-1114 G810R); RET G810R) | DC50 (RET(KD: 658-1114 G810R); RET G810R, read-out: HiBiT-Degradation 293T.165 RET(KD: 658-1114 G810R) 6.0 hours (DC50)) [nM] | Emax (RET(KD: 658-1114 G810R); RET G810R, read-out: HiBiT-Degradation 293T.165 RET(KD: 658-1114 G810R) 6.0 hours (Emax)) [%] | HiBiT-Degradation 293T.144 RET (658-1114) 6.0 hours (IP) [nM] (RET (658-1114); RET wild-type) | DC50 (RET (658-1114); RET wild-type, read-out: HiBiT-Degradation 293T.144 RET (658-1114) 6.0 hours (DC50)) [nM] | Emax (RET (658-1114); RET wild-type, read-out: HiBiT-Degradation 293T.144 RET (658-1114) 6.0 hours (Emax)) [%] | 293T.165 RET(KD: 658-1114 G810R) 6.0 hours (IP) [nM] (RET(KD: 658-1114 G810R)) | 293T.144 RET (658-1114) 6.0 hours (IP) [nM] (RET (658-1114)) | Emax (RET (658-1114); [3]) [%] | DC50 (RET (658-1114); [4]) [nM] |
| --- | --- | --- | --- | --- | --- | --- | --- | --- | --- | --- | --- | --- | --- | --- | --- | --- | --- | --- |
| CC(C)(C)OC(=O)N1[C@@H]2COC[C@H]1CN(c1ccc(-c3nc(-c4cnn([C@H]5CC[C@@H](N6CCN(c7ccc(NC8CCC(=O)NC8=O)cc7F)CC6)CC5)c4)cn4ncc(C#N)c34)cn1)C2 (single isomer, unassigned) [Compound 159] | < 30 | < 50 |  |  |  |  |  |  |  |  |  |  |  |  | ++++ (<50 nM = ++++) | ++++ (<50 nM = ++++) | < 30 | < 50 |
| COc1cc(N2CCN([C@H]3CC[C@H](n4cc(-c5cn6ncc(C#N)c6c(-c6ccc(N7CC8CC(C7)N8Cc7ccccc7S(C)(=O)=O)nc6)n5)cn4)CC3)CC2)c(F)cc1NC1CCC(=O)NC1=O (stereo partly shown) [Compound 217, 6-[1-[4-[4-[4-[(2,6-dioxo-3-piperidyl)amino]-2-fluoro-5-methoxy-phenyl]piperazin-1-yl]cyclohexyl]pyrazol-4-yl]-4-[6-[6-[(2-methylsulfonylphenyl)methyl]-3,6-diazabicyclo[3.1.1]heptan-3-yl]-3-pyridyl]pyrazolo[1,5-a]pyrazine-3-carbonitrile] | < 30 | < 100 |  |  |  |  |  |  |  |  |  |  |  |  | ++++ (<50 nM = ++++) | ++++ (<50 nM = ++++) | < 30 | < 50 |
